The source of these data is US20070071831A1, “Product for the prevention and the treatment of grapevine infections and method of preparation thereof” (Vomm Impianti e Processi S.p.A., priority 2005, published 2007).

One experiment deals with downy mildew. The experiment in a line: Vineyard treatment of grapevine plants against downy mildew. The format is in vivo, Plasmopara viticola. As to conditions: remaining plants of a vineyard of approximately 1000 grapevine plants; same number and times of applications; beginning of March to end of July. The procedure: The product obtained according to example 1 was diluted with water, mixing a part of product with ten parts of water and it was used to treat the grapevine plants.
The product thus diluted was applied by spraying on 70 grapevine plants arranged in 5 rows in a vineyard comprising approximately 1000 grapevine plants. The remaining plants were then treated with a conventional synthetic plant protection product (Metiram).
The treatments were carried out during the period between the beginning of March and the end of July, each time applying a quantity of 100 g of diluted product per plant. The same number of applications as those of the conventional plant protection product were carried out, at the same times.

In a further experiment the test system is corky bark. The experiment in a line: Vineyard treatment of grapevine plants against corky bark. It is filed as in vivo. As to conditions: remaining plants (more than 500) of the same vineyard. An excerpt: Finally, some preliminary experiments have shown that the product of the invention is effective not only against downy mildew infections but also against other plant diseases such as, in particular, corky bark, caused by the phytoplasm transmitted by the vector Scaphoideus titanus Ball, a Deltocefalinae plathopper.
In particular the product has been tested on 70 grapevine plants arranged on five rows in a vineyard wherein the remaining plants (more than 500) have been treated with a conventional synthetic plant protection product (Fenitrothion).

Regarding Metiram, the “plants showing obvious signs of downy mildew infestation” value in the experiment on downy mildew is listed as 18%.
Turning to `COP(=S)(OC)Oc1ccc([N+](=O)[O-])c(C)c1` [Fenitrothion], in the experiment with corky bark, the “plants attacked by corky bark” value was “majority”.
